The values that follow come from patent US11498928B2, “Macrocyclic spiroethers as Mcl-1 inhibitors” (ASCENTAGE PHARMA (SUZHOU) CO., LTD., priority 2019, dated 2022).

For one assay, the system named is OPM-2 cells. Put plainly: Cell viability assay (OPM-2 cells), CCK-8. The class given is cell-based. Particulars: Homo sapiens, OPM-2, 24 h, 5% FBS. On the procedure: OPM-2 cells were obtained from Deutsche Sammlung von Mikroorganismen and Zellkulturen GmbH (DSMZ). Cells were maintained in the recommended culture medium with 10% FBS at 37° C. and an atmosphere of 5% CO2.
The effect of representative Compounds of the Disclosure on cell viability was determined using Cell Counting Kit-8 (CCK-8) assay (Shanghai Life iLab Bio Technology) according to the manufacturer's instructions. Each tested compound was serially diluted in culture medium, 100 μL of the compound dilution was added into 96-well plates. 100 μL of an OPM-2 cell suspension (20000 cells/well) in culture medium were seeded into the corresponding well of the plate and the cells were incubated at 37° C. in an atmosphere of 5% CO2 for 24 hours. In the next day, 20 μL of CCK-8 solution was added to each well of the plate and incubated for 4 hours.
The plates were read at 450 nm on the microplate spectrophotometer (SpectraMax plus 384, Molecular devices). The readings were normalized to the vehicle cells, and the IC50 was calculated by nonlinear regression analysis using GraphPad Prism 6 software.

The target of assay [1] is T1, Mcl-1 protein (residues 171-323) (Homo sapiens, UniProt Q07820).
T1 construct: Tag-free Mcl-1 protein (residues 171-323) was used in the FP assay
T1 sequence (Q07820 171-323): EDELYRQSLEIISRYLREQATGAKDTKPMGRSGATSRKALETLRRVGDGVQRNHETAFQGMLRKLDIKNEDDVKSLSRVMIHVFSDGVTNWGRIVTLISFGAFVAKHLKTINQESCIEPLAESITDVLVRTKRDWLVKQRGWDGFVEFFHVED
Put plainly: Inhibition of Mcl-1 by fluorescence polarization (FP) competitive binding assay with FAM-Bid tracer. The following applies: 2 nM FAM-Bid, 20 nM Mcl-1, 30 min. How it is done: Inhibition of Mcl-1 by Fluorescence Polarization (FP) Assay.
The relative binding potency of representative Compounds of the Disclosure was determined by a fluorescence polarization (FP) assay (Long et al, BMC Biotechnology 13:45 (2013)). The method used a fluorescein labelled peptide (FAM-Bid) which binds to the Mcl-1 protein leading to an increased anisotropy measured in milli-polarization (mP) values using a plate reader. […] Tag-free Mcl-1 protein (residues 171-323) was used in the FP assay (Mady et al, Scientific Reports 8: 10210-10210 (2018); Yang et al, ACS Med. Chem. Lett. 3:308-312 (2012)).
A 10-points serial dilution of each compound was prepared in DMSO and 5 μL solution was transferred into flat bottomed, 96-well back plate (final DMSO concentration 5%). 120 μL of Buffer (PBS, 0.01% BGG (Sigma Cat. #SRE0011), 0.01% Triton X-100), containing the Fluorescein labelled peptide (Final concentration 2 nM) and Mcl-1 protein (final concentration 20 nM) was then added. Assay plates were incubated 30 mins at room temperature with gentle shaking before FP was measured on a Biotek Synergy 1MF reader (Ex. 485 nm, Em. 528 nm, Cut off 510 nm) and mP calculated. The binding of increasing doses of test compounds was expressed as a percentage reduction in mP compared to a window established between 5% DMSO only and 100% inhibition controls (no Mcl-1 protein). 10-points dose response curves were plotted with GraphPad software using Sigmoidal Dose-Response Model and the IC50 values were determined by nonlinear regression fitting of the competition curves. Cell Viability Assay (NCI-H929 cells)

Another assay deals with NCI-H929 cells. Put plainly: Cell viability assay (NCI-H929 cells), CCK-8. Particulars: Homo sapiens, NCI-H929, 24 h, 5% FBS. The class given is cell-based. On the procedure:
NCI-H929 cells were obtained from American Type Culture Collection (ATCC). Cells were maintained in the recommended culture medium (RPMI 1640) with 10% FBS and 0.05 mM BME at 37° C. and an atmosphere of 5% CO2.
The effect of Compounds on cell viability was determined using Cell Counting Kit-8 (CCK-8) assay according to the manufacturer's instructions. 95 μL of NCI-H929 cell suspension (20000 cells/well) in culture medium were seeded into 96-well plates and cultured 4 hrs. Each tested compound was serially diluted in DMSO, then 5 μL of the compound or DMSO was diluted in 95 μL medium once more. At last, 5 μL of the compound dilution was added to the corresponding well of the cell plate. After the addition of the tested compound, the cells were incubated at 37° C. in an atmosphere of 5% CO2 for 24 hrs. At the end, 10 μL of CCK-8 solution was added to each well of the plate and incubated for 1-4 hours. The plates were read at 450 nm on the microplate reader (BioTek Synergy 1MF). The readings were normalized to the vehicle cells, and the IC50 was calculated by nonlinear regression analysis using GraphPad Prism 6 software. Cell Viability Assay (OPM-2 cells)

Take `C[C@@H]1[C@@H](C)S(=O)(=O)NC(=O)c2ccc3c(c2)N(C[C@@H]2CC[C@H]2[C@](O)(CN2CCN4CCOC[C@@H]4C2)C2=C[C@H]1C2)C[C@@]1(CCCc2c1ccc(Cl)c2F)CO3` [compound 47, (1S,11′R,12′S,13′R,16′R,16a′R,18a′R,E)-6-chloro-5-fluoro-16′-(((S)-hexahydropyrazino[2,1-c][1,4]oxazin-8(1H)-yl)methyl)-16′-hydroxy-11′,12′-dimethyl-3,4,12,′13′,16′,16a′,17′,18′,18a′,19′-decahydro-1′H,2H,3′H,11′H-spiro[naphthalene-1,2′-[5,7]etheno[13,15]methanocyclobuta[i][1,4]oxazepino[3,4-f][1]thia[2,7]diazacyclohexadecin]-8′(9′H)-one 10′,10′-dioxide]: the values for the IC50 (in the assay on OPM-2 cells; in assay [1]; in the assay on NCI-H929 cells) were 32 nM, 13 nM and 5.8 nM, respectively.

For `C[C@@H]1[C@@H](C)S(=O)(=O)NC(=O)c2ccc3c(c2)N(C[C@@H]2CC[C@H]2[C@@H](OCCN2CCC(F)(F)CC2)C2=C[C@H]1C2)C[C@@]1(CCCc2c1ccc(Cl)c2F)CO3` [compound 95], the IC50 in the assay with OPM-2 cells came out at 42 nM; in assay [1] it was 23 nM; in the assay on NCI-H929 cells it was 44 nM.

Regarding `CO[C@@]1(CN2CCN3CCCC[C@H]3C2)C2=C[C@@H](C2)[C@H](C)[C@@H](C)S(=O)(=O)NC(=O)c2ccc3c(c2)N(C[C@@H]2CC[C@H]21)C[C@@]1(CCCc2c1ccc(Cl)c2F)CO3` [compound 32, (1S,11′R,12′S,13′R,16′R,16a′R,18a′R,E)-6-chloro-5-fluoro-16′-methoxy-11′,12′-dimethyl-16′-(((S)-octahydro-2H-pyrido[1,2-a]pyrazin-2-yl)methyl)-3,4,12′,13′,16′,16a′,17′,18′,18a′,19′-decahydro-1′H,2H,3′H,11′H-spiro[naphthalene-1,2′-[5,7]etheno[13,15]methanocyclobuta[i][1,4]oxazepino[3,4-f][1]thia[2,7]diazacyclohexadecin]-8′(9′H)-one 10′,10′-dioxide], the IC50 in the assay with OPM-2 cells came to 29 nM; in assay [1], 13 nM; in the assay with NCI-H929 cells, 10 nM.

Consider `C[C@@H]1[C@@H](C)S(=O)(=O)NC(=O)c2ccc3c(c2)N(C[C@@H]2CC[C@H]2[C@@H](OCCN2CCN(C)CC2)C2=C[C@H]1C2)C[C@@]1(CCCc2c1ccc(Cl)c2F)CO3` [compound 86, (1S,11′R,12′S,13′R,16′R,16a′R,18a′R,E)-6-chloro-5-fluoro-11′,12′-dimethyl-16′-(2-(4-methylpiperazin-1-yl)ethoxy)-3,4,12′,13′,16′,16a′,17′,18′,18a′,19′-decahydro-1′H,2H,3′H, 11′H-spiro[naphthalene-1,2′-[5,7]etheno[13,15]methanocyclobuta[i][1,4]oxazepino[3,4-f][1]thia[2,7]diazacyclohexadecin]-8′(9′H)-one 10′,10′-dioxide], for which the half-maximal inhibitory concentration (IC50) with OPM-2 cells came out at 64 nM; in assay [1], 10 nM; in the assay on NCI-H929 cells it was 3.8 nM.

For `CNCCO[C@H]1C2=C[C@@H](C2)[C@H](C)[C@@H](C)S(=O)(=O)NC(=O)c2ccc3c(c2)N(C[C@@H]2CC[C@H]21)C[C@@]1(CCCc2c1ccc(Cl)c2F)CO3` [compound 78, (1S,11′R,12′S,13′R,16′R,16a′R,18a′R,E)-6-chloro-5-fluoro-11′,12′-dimethyl-16′-(2-(methylamino)ethoxy)-3,4,12′,13′,16′,16a′,17′,18′,18a′,19′-decahydro-1′H,2H,3′H, 11′H-spiro[naphthalene-1,2′-[5,7]etheno[13,15]methanocyclobuta[i][1,4]oxazepino[3,4-f][1]thia[2,7]diazacyclohexadecin]-8′(9′H)-one 10′,10′-dioxide], the IC50 in the assay with OPM-2 cells turned out to be 184 nM; in assay [1], 16 nM; in the assay on NCI-H929 cells, 66 nM.

For the compound `C[C@@H]1[C@@H](C)S(=O)(=O)NC(=O)c2ccc3c(c2)N(C[C@@H]2CC[C@H]2[C@@H](OCC2CCN(C)CC2)C2=C[C@H]1C2)C[C@@]1(CCCc2c1ccc(Cl)c2F)CO3` [compound 71], the half-maximal inhibitory concentration (IC50) was 81 nM in the assay on OPM-2 cells, 13 nM in assay [1] and 6 nM in the assay on NCI-H929 cells.

With `CC(C)N1CCN(CCO[C@H]2C3=C[C@@H](C3)[C@H](C)[C@@H](C)S(=O)(=O)NC(=O)c3ccc4c(c3)N(C[C@@H]3CC[C@H]32)C[C@@]2(CCCc3c2ccc(Cl)c3F)CO4)CC1` [compound 90, (1S,11′R,12′S,13′R,16′R,16a′R,18a′R,E)-6-chloro-5-fluoro-16′-(2-(4-isopropylpiperazin-1-yl)ethoxy)-11′,12′-dimethyl-3,4,12′,13′,16′,16a′,17′,18′,18a′,19′-decahydro-1′H,2H,3′H, 11′H-spiro[naphthalene-1,2′-[5,7]etheno[13,15]methanocyclobuta[i][1,4]oxazepino[3,4-f][1]thia[2,7]diazacyclohexadecin]-8′(9′H)-one 10′,10′-dioxide], the half-maximal inhibitory concentration (IC50) in the assay with OPM-2 cells amounted to 20 nM; in assay [1], 12 nM; with NCI-H929 cells, 1.6 nM.

`C[C@@H]1[C@@H](C)S(=O)(=O)NC(=O)c2ccc3c(c2)N(C[C@@H]2CC[C@H]2[C@@H](OCCN2CCNCC2)C2=C[C@H]1C2)C[C@@]1(CCCc2c1ccc(Cl)c2F)CO3` [compound 65, (1S,11′R,12′S,13′R,16′R,16a′R,18a′R,E)-6-chloro-5-fluoro-11′,12′-dimethyl-16′-(2-(piperazin-1-yl)ethoxy)-3,4,12′,13′,16′,16a′,17′,18′,18a′,19′-decahydro-1′H,2H,3′H, 11′H-spiro[naphthalene-1,2′-[5,7]etheno[13,15]methanocyclobuta[i][1,4]oxazepino[3,4-f][1]thia[2,7]diazacyclohexadecin]-8′(9′H)-one 10′,10′-dioxide]: the results for the IC50 (in the assay with OPM-2 cells; in assay [1]; in the assay with NCI-H929 cells) were 247 nM, 15 nM and 210 nM, respectively.

With `COCCN[C@H]1C2=C[C@@H](C2)[C@H](C)[C@@H](C)S(=O)(=O)NC(=O)c2ccc3c(c2)N(C[C@@H]2CC[C@H]21)C[C@@]1(CCCc2c1ccc(Cl)c2F)CO3` [compound 58, (1S,11′R,12′S,13′R,16′R,16a′R,18a′R)-6-chloro-5-fluoro-16′-((2-methoxyethyl)amino)-11′,12′-dimethyl-3,4,12′,13′,16′,16a′,17′,18′,18a′,19′-decahydro-1′H,2H,3′H, 11′H-spiro[naphthalene-1,2′-[5,7]etheno[13,15]methanocyclobuta[i][1,4]oxazepino[3,4-f][1]thia[2,7]diazacyclohexadecin]-8′(9′H)-one 10′,10′-dioxide], the half-inhibitory concentration (IC50) in the assay with OPM-2 cells is 57 nM; in assay [1], 19 nM; with NCI-H929 cells it was 18 nM.

`CC(C)[C@@H]1C2=C[C@@H](C2)[C@H](C)[C@@H](C)S(=O)(=O)NC(=O)c2ccc3c(c2)N(C[C@@H]2CC[C@H]21)C[C@@]1(CCCc2c1ccc(Cl)c2F)CO3` [compound 55, (1S,11′R,12′S,13′R,16′S,16a′S,18a′R)-6-chloro-5-fluoro-16′-isopropyl-11′,12′-dimethyl-3,4,12′,13′,16′,16a′,17′,18′,18a′,19′-decahydro-1′H,2H,3′H,11′H-spiro[naphthalene-1,2′-[5,7]etheno[13,15]methanocyclobuta[i][1,4]oxazepino[3,4-f][1]thia[2,7]diazacyclohexadecin]-8′(9′H)-one 10′,10′-dioxide]: the IC50 with OPM-2 cells was found to be 1010 nM; in assay [1] it was 13 nM; in the assay with NCI-H929 cells, 1000 nM.
